Reference: US20250120975A1, “INTEGRIN INHIBITORS FOR TREATMENT OF PRIMARY SCLEROSING CHOLANGITIS” (Pliant Therapeutics, Inc., priority 2023, published 2025)
Entries after “also recorded” stand apart in the source; their conditions may differ.

What was measured:
[1] = Phase 2a INTEGRIS-PSC: plasma concentrations (total and unbound); type: in vivo, human; settings: 40, 80, 160 mg once daily, 12 weeks
Text: The pharmacokinetic, pharmacodynamic, and pharmacogenomic assessments included the following: • a) PK: plasma samples for PK analysis (total and unbound(S)-4-((2-methoxyethyl)(4-(5,6,7,8-tetrahydro-1,8-naphthyridin-2-yl)butyl)amino)-2-(quinazolin-4-ylamino)butanoic acid concentrations) were obtained. • b) Biomarkers: plasma, serum (Parts 1, 2, and 3), and urine (Parts 1 and 2) samples were obtained. • c) Pharmacogenomics: a whole blood sample for deoxyribonucleic acid (DNA) isolation was collected before dosing on Day 1 from each subject in the study.
Blood samples for determination of plasma concentrations of (S)-4-((2-methoxyethyl)(4-(5,6,7,8-tetrahydro-1,8-naphthyridin-2-yl)butyl)amino)-2-(quinazolin-4-ylamino)butanoic acid are obtained before and at least 2 hours after administration of (S)-4-((2-methoxyethyl)(4-(5,6,7,8-tetrahydro-1,8-naphthyridin-2-yl)butyl)amino)-2-(quinazolin-4-ylamino)butanoic acid on Day 1, at Weeks 4 and 12(Parts 1, 2, and 3), Week 24 (Part 3 only), and at early termination (if possible, for any subject who prematurely discontinues from the study). The actual time dosing and the actual time of blood collection is recorded. […]

[2] = system: subjects with PSC and suspected liver fibrosis; assay: Phase 2a INTEGRIS-PSC: Enhanced Liver Fibrosis (ELF) score and components; type: in vivo, human
Protocol: The Enhanced Liver Fibrosis (ELF) score is a set of markers for extracellular matrix (ECM) activity. Three serum markers are measured, tissue inhibitor of metalloproteinases 1 (TIMP-1), amino-terminal propeptide of type III procollagen (PIIINP) and hyaluronic acid (HA). The measurements are combined in an algorithm to provide a score that correlates well with the degree of liver fibrosis (Sharma, C. et al., Journal of Gastroenterology and Hepatology, 36:1788-1802(2021), incorporated by reference herein in its entirety). A change in ELF score greater than or equal to 0.19 is indicative of clinical progression within two years (Muir A. J. et al., Hepatology, 2019 February; 69 (2): 684-698, incorporated by reference herein in its entirety). An ELF greater than or equal to 7.7 is considered moderate to severe fibrosis (Vesterhus M. et al., Hepatology, 2015 July; 62(1):188-97; incorporated by reference herein in its entirety).
In Parts 1 and 2, plasma, serum, and urine biomarker samples were obtained at predetermined times as indicated in the Schedule of Events (see Table B-4). In Part 3, plasma and serum biomarker samples were obtained at predetermined times as indicated in the Schedule of Events (see Table B-5 and Table B-6). These samples were used to measure specific proteins, nucleotides and/or metabolites that were elevated in subjects with fibrosis, and/or pharmacodynamic markers that could change with inhibition of integrins αVβ6 and αVβ1. The samples were also used to perform exploratory investigations using metabolomic or proteomic methods for use in future studies in subjects with fibrotic diseases.
Absolute and relative changes from Baseline in liver fibrosis biomarkers (including PRO-C3 and ELF) and in ALP are presented in numerical and graphical forms by treatment and dose utilizing data from the timepoints specified in the Schedule of Events. Changes from Baseline to Week 12(Parts 1 and 2) and Week 24 (Part 3) in magnetic resonance (MR)-based liver imaging are also evaluated, as well as changes in PROs.

[3] = system: BALB/c.Mdr2−/− mouse model of biliary fibrosis; assay: Direct (invasive) portal venous pressure measurement; type: in vivo; settings: 100, 300, 1000 mg/kg PO/QD, 6 weeks
Protocol: Antifibrotic activity of (S)-4-((2-methoxyethyl)(4-(5,6,7,8-tetrahydro-1,8-naphthyridin-2-yl)butyl)amino)-2-(quinazolin-4-ylamino)butanoic acid was tested in the BALBc.Mdr2−/− murine model of liver biliary fibrosis. […] BALBc.Mdr2−/− mice develop periductular fibrotic lesions at 4 weeks with rapid and progressive fibrotic progression. Bridging fibrosis and early cirrhosis is observed at 12 weeks along with severe portal hypertension and enhanced collagen deposition.
The tissue source is BALBc.Mdr2-/−male mice that were 6 weeks old. The Mdr2(abcb4)−/− mouse model of sclerosing cholangitis has been previously described and is a model of spontaneously progressive hepatic fibrosis in mice with deletion of the biliary phospholipid flippase on fibrosis-susceptible background (Mdr2(abcb4)^−/−. BALB/c mouse). See N. Ikenaga, et al. (2015) Am J Pathol. 185 (2): 325-334, the entire contents of which are hereby incorporated by reference in their entirety. […]
After laparotomy, the portal vein of the mouse subject was cannulated through an ileocolic vein, and portal pressure was measured directly by inserting a 1.2-Fr high-fidelity pressure catheter. Pressure signals were recorded at 2 kHz for 5 Min, and analyzed using PowerLab software. […]

[4] = system: BALB/c.Mdr2−/− mouse model of biliary fibrosis; assay: Assessment of body and organ weights (liver, spleen) and colon length; type: in vivo; settings: 6 weeks
Text: The tissue source is BALBc.Mdr2-/−male mice that were 6 weeks old. The Mdr2(abcb4)−/− mouse model of sclerosing cholangitis has been previously described and is a model of spontaneously progressive hepatic fibrosis in mice with deletion of the biliary phospholipid flippase on fibrosis-susceptible background (Mdr2(abcb4)^−/−. BALB/c mouse). See N. Ikenaga, et al. (2015) Am J Pathol. 185 (2): 325-334, the entire contents of which are hereby incorporated by reference in their entirety.
(S)-4-((2-methoxyethyl)(4-(5,6,7,8-tetrahydro-1,8-naphthyridin-2-yl)butyl)amino)-2-(quinazolin-4-ylamino)butanoic acid (or PBS) was dosed once daily orally at 100 mg/kg, 300 mg/kg or 1000 mg/kg (see Table B-2) starting at 6 weeks after birth of the subject and continuing for 6 weeks. All animals were euthanized and necropsied at the end of week 12.
Body, liver and spleen weights and colon length were determined at necropsy. Liver and plasma were snap frozen/preserved in liquid nitrogen. Two pieces of liver were fixed in formalin for histological assessment.

COCCN(CCCCc1ccc2c(n1)NCCC2)CC[C@H](Nc1ncnc2ccccc12)C(=O)O [Bexotegrast, (S)-4-((2-methoxyethyl)(4-(5,6,7,8-tetrahydro-1,8-naphthyridin-2-yl)butyl)amino)-2-(quinazolin-4-ylamino)butanoic acid]
total and unbound plasma concentrations vs dose [1]: increased with dose | ELF score components TIMP-1, HA, PIIINP vs placebo ([2]; 160 mg, Week 12, Example B-3): achieved statistical significance | ELF score, difference to placebo ([2]; 160 mg, Week 12, Example B-3): statistically significant difference | reduction of the mean change in ELF score relative to placebo ([2]; 160 mg, Week 12, Example B-3): 84% | ELF score relative to placebo ([2]; 320 mg, Week 12, Example B-4): reduction | ELF score, overall population ([2]; 320 mg, Week 12 to Week 24, Example B-5): no increase; also recorded: stable ELF score | ELF score, patients at high risk (baseline ELF >9.8) ([2]; 320 mg, Week 24, compared to an increase in the placebo group, Example B-5): reduction in ELF score | ELF score components (TIMP-1, PIIINP, HA) compared to placebo ([2]; 40, 80, 160, 320 mg, Week 12, Example B-4): generally reduced | ELF score relative to placebo ([2]; all doses (40, 80, 160 mg), Week 12, Example B-3): reduced | ELF scores relative to placebo ([2]; all doses (40, 80, 160, 320 mg), Week 12, Example B-4): reduced | portal venous pressure [3]: did not induce any changes | liver weight relative to vehicle control ([4]; 1000 mg/kg/day): decreased | colon length ([4]; 100, 300, 1000 mg/kg): did not change | spleen weights ([4]; all doses (100, 300, 1000 mg/kg)): no changes
